Source: paper PMC10425802 (Genes & Diseases, 2023)
pIC50: −log10 of the molar value.

Tests used:
Test in all cases: mobility shift kinase assay
Format in all cases: biochemical
[1] = biological target: FGFR2 (Homo sapiens, UniProt P21802)
[2] = biological target: FGFR1 (Homo sapiens, UniProt P11362)
[3] = biological target: FGFR3 (Homo sapiens, UniProt P22607)
Chain of FGFR3 (P22607 23-806): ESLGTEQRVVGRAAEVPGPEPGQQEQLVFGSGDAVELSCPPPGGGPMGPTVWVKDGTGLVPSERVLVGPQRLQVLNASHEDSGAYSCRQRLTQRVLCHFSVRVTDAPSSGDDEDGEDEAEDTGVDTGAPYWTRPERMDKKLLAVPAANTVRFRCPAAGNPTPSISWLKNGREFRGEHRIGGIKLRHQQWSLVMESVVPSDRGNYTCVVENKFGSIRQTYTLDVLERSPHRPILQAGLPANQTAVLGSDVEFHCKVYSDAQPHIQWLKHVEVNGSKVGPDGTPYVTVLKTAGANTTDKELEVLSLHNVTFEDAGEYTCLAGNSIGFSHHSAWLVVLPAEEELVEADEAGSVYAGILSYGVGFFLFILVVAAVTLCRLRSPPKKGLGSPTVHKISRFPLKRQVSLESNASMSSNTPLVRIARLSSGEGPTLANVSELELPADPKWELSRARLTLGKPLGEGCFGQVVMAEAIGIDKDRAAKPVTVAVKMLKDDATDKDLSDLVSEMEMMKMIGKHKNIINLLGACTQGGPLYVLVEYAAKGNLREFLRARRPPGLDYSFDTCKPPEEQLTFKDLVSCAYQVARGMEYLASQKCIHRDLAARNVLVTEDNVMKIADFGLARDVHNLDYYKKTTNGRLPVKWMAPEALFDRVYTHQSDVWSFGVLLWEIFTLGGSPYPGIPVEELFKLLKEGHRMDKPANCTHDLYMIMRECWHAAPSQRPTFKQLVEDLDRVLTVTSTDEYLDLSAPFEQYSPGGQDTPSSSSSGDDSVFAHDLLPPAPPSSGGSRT

Chain of FGFR1 (P11362 22-822): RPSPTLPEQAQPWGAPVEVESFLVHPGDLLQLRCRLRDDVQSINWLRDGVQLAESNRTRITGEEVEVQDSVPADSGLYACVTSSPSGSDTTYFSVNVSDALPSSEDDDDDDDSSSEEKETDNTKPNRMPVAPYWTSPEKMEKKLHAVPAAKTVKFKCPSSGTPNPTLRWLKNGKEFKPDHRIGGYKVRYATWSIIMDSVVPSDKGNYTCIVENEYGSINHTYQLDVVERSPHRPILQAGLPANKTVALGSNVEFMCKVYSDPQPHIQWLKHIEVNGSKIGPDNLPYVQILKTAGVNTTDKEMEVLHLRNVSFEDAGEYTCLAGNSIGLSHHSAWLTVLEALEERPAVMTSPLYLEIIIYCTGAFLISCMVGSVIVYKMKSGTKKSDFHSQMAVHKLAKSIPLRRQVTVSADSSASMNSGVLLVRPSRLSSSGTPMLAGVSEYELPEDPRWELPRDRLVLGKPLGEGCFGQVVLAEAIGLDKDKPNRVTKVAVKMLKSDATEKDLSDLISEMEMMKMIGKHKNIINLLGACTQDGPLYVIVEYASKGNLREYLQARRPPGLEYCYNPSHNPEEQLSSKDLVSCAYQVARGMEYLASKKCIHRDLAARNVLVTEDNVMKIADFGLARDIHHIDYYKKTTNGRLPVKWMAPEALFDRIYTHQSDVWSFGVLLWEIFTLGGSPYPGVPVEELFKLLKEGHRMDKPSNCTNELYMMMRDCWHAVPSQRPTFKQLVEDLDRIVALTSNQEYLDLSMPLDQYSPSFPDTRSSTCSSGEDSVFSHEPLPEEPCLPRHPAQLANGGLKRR
Chain of FGFR2 (P21802 22-821): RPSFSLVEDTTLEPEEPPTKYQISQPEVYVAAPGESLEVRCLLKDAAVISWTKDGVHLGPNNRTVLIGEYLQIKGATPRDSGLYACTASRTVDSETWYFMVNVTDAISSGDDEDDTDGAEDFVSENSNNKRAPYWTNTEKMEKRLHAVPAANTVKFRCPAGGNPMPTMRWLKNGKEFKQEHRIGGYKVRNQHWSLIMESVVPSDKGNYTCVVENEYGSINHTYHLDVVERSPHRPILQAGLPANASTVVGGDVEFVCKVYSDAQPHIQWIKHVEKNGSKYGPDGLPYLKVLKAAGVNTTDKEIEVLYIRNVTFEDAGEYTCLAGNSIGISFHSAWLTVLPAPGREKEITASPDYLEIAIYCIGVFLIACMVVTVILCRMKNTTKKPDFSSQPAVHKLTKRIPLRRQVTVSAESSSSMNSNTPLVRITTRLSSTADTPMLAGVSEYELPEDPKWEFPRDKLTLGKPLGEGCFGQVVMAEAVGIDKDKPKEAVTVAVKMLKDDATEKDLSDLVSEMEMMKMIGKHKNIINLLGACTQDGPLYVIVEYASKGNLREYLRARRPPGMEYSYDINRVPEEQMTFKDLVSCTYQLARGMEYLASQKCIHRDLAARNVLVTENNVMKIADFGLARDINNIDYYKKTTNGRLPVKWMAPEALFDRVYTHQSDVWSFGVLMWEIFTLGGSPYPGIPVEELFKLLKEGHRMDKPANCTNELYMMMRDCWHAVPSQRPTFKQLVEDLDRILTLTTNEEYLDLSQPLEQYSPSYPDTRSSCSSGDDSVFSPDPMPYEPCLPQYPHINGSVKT

## CYY292
[1]
  pIC50: 7.55
[2]
  pIC50: 7.55
[3]
  pIC50: 7.11
